In brackets after ≈: the same amount, converted by molar mass. Activity calls are given as the source filed them. The rule behind the calls is not given here.
How the values were obtained:
Type in all cases: functional
[1] = (§1) Cytotoxicity against human HEPA 59T/VGH cells by MTT assay; settings: read-out: ED50 (the source's name)
KB = assay: Cytotoxicity against human KB cells by MTT assay
HEPA 59T/VGH = assay: as §1

Structure (SMILES)	EC50 [1]	EC50 (KB; read-out: ED50 (the source's name))	Activity (HEPA 59T/VGH)	Activity (KB)
C=C(C)[C@H]1C/C=C2\C(=O)O[C@H](C[C@]3(C)CC(=O)[C@H](CC(=O)C1)O3)[C@H]2O [SCABROLIDE E]	0.5 µg/mL (≈ 1.44 µM)	0.7 µg/mL (≈ 2.01 µM)		
C=C(C)[C@@H]1CC(=O)C[C@H](O)[C@@]2(O)[C@H]1C=C1C(=O)O[C@@H]3C[C@](C)(O)[C@H]2[C@H]13			inactive	inactive
